The compounds below were run against T1, human liver glycogen phosphorylase a (HLGPa) (Homo sapiens, UniProt P06737) (assay: Human liver glycogen phosphorylase a enzymatic activity assay (coupled, fluorescent resorufin readout, with and without 10 mM glucose)). Settings: human liver glycogen phosphorylase a enzymatic activity assay.
T1 construct: creating a full-length cDNA fused at the 5′ end to codons for methionine-glycine-alanine-histidine; 6xHis tag (leader Met-Gly-Ala-His6-Gly-Gly) (N); made in house; host or cells: E. coli (bacterial expression plasmid pTXK1007LTev)
T1 sequence (P06737 2-847 limits assumed): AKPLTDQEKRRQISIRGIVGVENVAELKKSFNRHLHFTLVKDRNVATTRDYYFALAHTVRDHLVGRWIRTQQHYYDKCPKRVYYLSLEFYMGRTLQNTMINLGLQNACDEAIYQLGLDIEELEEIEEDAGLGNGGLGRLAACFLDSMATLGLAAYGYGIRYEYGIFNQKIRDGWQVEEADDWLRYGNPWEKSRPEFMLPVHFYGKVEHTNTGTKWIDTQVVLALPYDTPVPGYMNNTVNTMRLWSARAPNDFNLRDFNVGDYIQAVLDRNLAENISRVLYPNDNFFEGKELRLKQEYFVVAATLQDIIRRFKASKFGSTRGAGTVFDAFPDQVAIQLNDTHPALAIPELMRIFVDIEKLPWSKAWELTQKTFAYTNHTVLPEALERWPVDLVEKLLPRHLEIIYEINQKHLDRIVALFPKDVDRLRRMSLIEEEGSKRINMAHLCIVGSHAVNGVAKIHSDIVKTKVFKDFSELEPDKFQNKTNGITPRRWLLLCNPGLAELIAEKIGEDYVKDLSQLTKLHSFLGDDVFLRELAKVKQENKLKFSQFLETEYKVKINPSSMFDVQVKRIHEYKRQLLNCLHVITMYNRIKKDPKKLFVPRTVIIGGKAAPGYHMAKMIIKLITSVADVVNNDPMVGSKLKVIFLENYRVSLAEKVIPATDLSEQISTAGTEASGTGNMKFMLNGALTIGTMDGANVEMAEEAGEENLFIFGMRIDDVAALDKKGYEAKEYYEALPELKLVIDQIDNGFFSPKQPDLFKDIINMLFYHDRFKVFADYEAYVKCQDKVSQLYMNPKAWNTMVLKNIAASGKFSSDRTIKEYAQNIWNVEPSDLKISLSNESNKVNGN
Format: biochemical

Structure (SMILES) | IC50
O=C(Nc1sc(-c2cccnc2)cc1C(=O)O)Nc1c(Cl)cccc1Cl [Example 414, 2-({[(2,6-dichlorophenyl)amino]carbonyl}amino)-5-(3-pyridinyl)-3-thiophenecarboxylic acid] | 2720 nM
O=C(Nc1sc(-c2cccnc2)cc1C(=O)N[C@H](C(=O)O)C1CCCCC1)Nc1c(Cl)cccc1Cl [Example 415, (2S)-cyclohexyl({[2-({[(2,6-dichlorophenyl)amino]carbonyl}amino)-5-(3-pyridinyl)-3-thienyl]carbonyl}amino)ethanoic acid] | 770 nM
COc1cccc(-c2cc(C(=O)O)c(NC(=O)Nc3c(Cl)cccc3Cl)s2)c1 [Example 416, 2-({[(2,6-dichlorophenyl)amino]carbonyl}amino)-5-[3-(methyloxy)phenyl]-3-thiophenecarboxylic acid] | 4130 nM
COc1cccc(-c2cc(C(=O)N[C@H](C(=O)O)C3CCCCC3)c(NC(=O)Nc3c(Cl)cccc3Cl)s2)c1 [Example 417, (2S)-cyclohexyl[({2-({[(2,6-dichlorophenyl)amino]carbonyl}amino)-5-[3-(methyloxy)phenyl]-3-thienyl}carbonyl)amino]ethanoic acid] | 360 nM
O=C(Nc1sc(-c2ccc(F)cc2)cc1C(=O)O)Nc1c(Cl)cccc1Cl [Example 418, 2-({[(2,6-dichlorophenyl)amino]carbonyl}amino)-5-(4-fluorophenyl)-3-thiophenecarboxylic acid] | 2970 nM
O=C(Nc1sc(-c2ccc(F)cc2)cc1C(=O)N[C@H](C(=O)O)C1CCCCC1)Nc1c(Cl)cccc1Cl [Example 419, (2S)-cyclohexyl({[2-({[(2,6-dichlorophenyl)amino]carbonyl}amino)-5-(4-fluorophenyl)-3-thienyl]carbonyl}amino)ethanoic acid] | 600 nM

Continued, values first:

IC50 | Structure (SMILES)
5640 nM | Cc1cc(F)ccc1-c1cc(C(=O)O)c(NC(=O)Nc2c(Cl)cccc2Cl)s1 [Example 420, 2-({[(2,6-dichlorophenyl)amino]carbonyl}amino)-5-(4-fluoro-2-methylphenyl)-3-thiophenecarboxylic acid]
1390 nM | Cc1cc(F)ccc1-c1cc(C(=O)N[C@H](C(=O)O)C2CCCCC2)c(NC(=O)Nc2c(Cl)cccc2Cl)s1 [Example 421, (2S)-cyclohexyl({[2-({[(2,6-dichlorophenyl)amino]carbonyl}amino)-5-(4-fluoro-2-methylphenyl)-3-thienyl]carbonyl}amino)ethanoic acid]
6340 nM | Cn1cc(-c2cc(C(=O)O)c(NC(=O)Nc3c(Cl)cccc3Cl)s2)cn1 [Example 422, 2-({[(2,6-dichlorophenyl)amino]carbonyl}amino)-5-(1-methyl-1H-pyrazol-4-yl)-3-thiophenecarboxylic acid]
260 nM | Cn1cc(-c2cc(C(=O)N[C@H](C(=O)O)C3CCCCC3)c(NC(=O)Nc3c(Cl)cccc3Cl)s2)cn1 [Example 423, (2S)-cyclohexyl({[2-({[(2,6-dichlorophenyl)amino]carbonyl}amino)-5-(1-methyl-1H-pyrazol-4-yl)-3-thienyl]carbonyl}amino)ethanoic acid]
290 nM | COc1ccc(-c2cc(C(=O)O)c(NC(=O)Nc3c(C)cc(C)cc3C)s2)cc1 [Example 424, 5-[4-(methyloxy)phenyl]-2-({[(2,4,6-trimethylphenyl)amino]carbonyl}amino)-3-thiophenecarboxylic acid]
16 nM | COc1ccc(-c2cc(C(=O)N[C@H](C(=O)O)C3CCCCC3)c(NC(=O)Nc3c(C)cc(C)cc3C)s2)cc1 [Example 425, (2S)-cyclohexyl({[5-[4-(methyloxy)phenyl]-2-({[(2,4,6-trimethylphenyl)amino]carbonyl}amino)-3-thienyl]carbonyl}amino)ethanoic acid]
1310 nM | COc1ccc(-c2cc(C(=O)O)c(NC(=O)Nc3c(Cl)cc(OC(F)(F)F)cc3Cl)s2)cc1 [Example 426, 2-{[({2,6-dichloro-4-[(trifluoromethyl)oxy]phenyl}amino)carbonyl]amino}-5-[4-(methyloxy)phenyl]-3-thiophenecarboxylic acid]

Source: patent publication US20070249670A1, “Glycogen Phosphorylase Inhibitor Compounds and Pharmaceutical Compositions Thereof” (SMITHKLINE BEECHAM CORPORATION, priority 2004, published 2007)
